In patent publication US7879862B2, “Pyrazolo[1,5-alpha]pyrimidinyl derivatives useful as corticotropin-releasing factor (CRF) receptor antagonists” (SmithKline Beecham (Cork) Limited, priority 2004, dated 2011):

The molecules below were run against T1, human CRF receptors (Homo sapiens, UniProt P34998) (assay: CRF receptor binding activity (radioligand displacement, Example 25)). Conditions: not given.
T1 construct: expressed in transfected cells
T1 sequence (P34998 24-415): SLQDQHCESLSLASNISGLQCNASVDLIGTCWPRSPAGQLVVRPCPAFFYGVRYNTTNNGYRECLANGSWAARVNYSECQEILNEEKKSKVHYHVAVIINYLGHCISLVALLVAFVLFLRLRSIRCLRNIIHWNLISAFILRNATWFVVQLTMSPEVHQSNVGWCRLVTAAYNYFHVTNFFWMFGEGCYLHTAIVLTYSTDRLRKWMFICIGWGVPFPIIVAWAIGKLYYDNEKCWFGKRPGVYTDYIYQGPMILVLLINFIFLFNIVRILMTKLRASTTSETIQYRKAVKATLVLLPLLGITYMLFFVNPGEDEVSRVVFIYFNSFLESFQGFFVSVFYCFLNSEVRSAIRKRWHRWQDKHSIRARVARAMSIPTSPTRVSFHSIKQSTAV
Text: The effectiveness of a compound as a CRF receptor antagonist may be determined by various assay methods. […] CRF receptor affinity may be determined by binding studies that measure the ability of a compound to inhibit the binding of a radiolabeled CRF (e.g., [^125I]tyrosine-CFR) to its receptor (e.g., receptors prepared from rat cerebral cortex membranes). The radioligand binding assay described by DeSouza et al. (supra, 1987) provides an assay for determining a compound's affinity for the CRF receptor.
[formula] where L=radioligand and KD=affinity of radioligand for receptor (Cheng and Prusoff, Biochem. Pharmacol. 22:3099, 1973).
By utilizing radiolabeled CRF ligands, the assay may be used to evaluate the binding activity of the compounds of the present invention with any CRF receptor subtype.
Briefly, the binding assay involves the displacement of a radiolabeled CRF ligand from the CRF receptor. More specifically, the binding assay is performed in 96-well assay plates using 1-10 μg cell membranes from cells stably transfected with human CRF receptors. […] The mixture is incubated for 2 hours at 22° C. followed by separation of the bound and free radioligand by rapid filtration over glass fiber filters. Following three washes, the filters are dried and radioactivity (Auger electrons from ^125I) is counted using a scintillation counter. All radioligand binding data may be analyzed using the non-linear least-squares curve-fitting programs Prism (GraphPad Software Inc) or XLfit (ID Business Solutions Ltd).
`CCC(Nc1cc(C)nc2c(-c3ccc(OC)cc3OC)c(C)nn12)c1nc(C)no1` (stereo not shown) [Example 11-20, [3-(2,4-Dimethoxy-phenyl)-2,5-dimethyl-pyrazolo[1,5-a]pyrimidin-7-yl]-[1-(3-methyl-[1,2,4]oxadiazol-5-yl)-propyl]-amine] was tested, and the Ki was < 100 nM.
For `COc1ccc(-c2c(C)nn3c(N[C@H](C)Cc4nc(C)no4)cc(C)nc23)c(C)c1` [Example 11-10, [3-(4-Methoxy-2-methyl-phenyl)-2,5-dimethyl-pyrazolo[1,5-a]pyrimidin-7-yl]-[(R)-1-methyl-2-(3-methyl-[1,2,4]oxadiazol-5-yl)-ethyl]-amine], the Ki was < 100 nM.
`COc1ccc(-c2c(C)nn3c(NCc4nc(C)no4)cc(C)nc23)c(C)c1` [Example 11-6, [3-(4-Methoxy-2-methyl-phenyl)-2,5-dimethyl-pyrazolo[1,5-a]pyrimidin-7-yl]-(3-methyl-[1,2,4]oxadiazol-5-ylmethyl)-amine] was tested, and the Ki was < 100 nM.
`COc1ccc(-c2c(C)nn3c(N[C@H](C)Cc4noc(C)n4)cc(C)nc23)c(C)c1` [Example 17-1, [3-(4-Methoxy-2-methyl-phenyl)-2,5-dimethyl-pyrazolo[1,5-a]pyrimidin-7-yl]-[(R)-1-methyl-2-(5-methyl-[1,2,4]oxadiazol-3-yl)-ethyl]-amine] was tested, and the Ki was < 100 nM.

Same assay, conditions: displacement of [125I] tyrosine-sauvagine from membranes of cells stably transfected with human CRF receptors; less than 0.10 μM (i.e., 100 nM); read-out: Ki (CRF receptor binding affinity)
`COc1ccc(-c2c(C)nn3c(N4CCC[C@H]4Cc4nc(C)no4)cc(C)nc23)c(C)c1` [Example 14-3, 3-(4-Methoxy-2-methyl-phenyl)-2,5-dimethyl-7-[(S)-2-(3-methyl-[1,2,4]oxadiazol-5-ylmethyl)-pyrrolidin-1-yl]-pyrazolo[1,5-a]pyrimidine] was tested, and the Ki was < 100 nM.
`COc1ccc(-c2c(C)nn3c(N[C@@H](Cc4nc(C)no4)C(F)(F)F)cc(C)nc23)c(C)c1` [Example 13-2, [3-(4-Methoxy-2-methyl-phenyl)-2,5-dimethyl-pyrazolo[1,5-a]pyrimidin-7-yl]-[2,2,2-trifluoro-(S)-1-(3-methyl-[1,2,4]oxadiazol-5-ylmethyl)-ethyl]-amine] was tested, and the Ki was < 100 nM.
In the case of `COc1ccc(-c2c(C)nn3c(N[C@H](C)Cc4noc(C(F)(F)F)n4)cc(C)nc23)c(C)c1` [Example 18-2, [3-(4-Methoxy-2-methyl-phenyl)-2,5-dimethyl-pyrazolo[1,5-a]pyrimidin-7-yl]-[(R)-1-methyl-2-(5-trifluoromethyl-[1,2,4]oxadiazol-3-yl)-ethyl]-amine], the Ki is reported as < 100 nM.
`CCC(Nc1cc(C)nc2c(-c3ccc(Cl)cc3OC)c(C)nn12)c1nc(C)no1` (stereo not shown) [Example 24-2, [3-(4-Chloro-2-methoxy-phenyl)-2,5-dimethyl-pyrazolo[1,5-a]pyrimidin-7-yl]-[1-(3-methyl-[1,2,4]oxadiazol-5-yl)-propyl]-amine] was tested, and the Ki was < 100 nM.
In the case of `COc1ccc(-c2c(C)nn3c(NC(Cc4nc(C)no4)C(F)(F)F)cc(C)nc23)c(C)c1` (stereo not shown) [Example 12-3, [3-(4-Methoxy-2-methyl-phenyl)-2,5-dimethyl-pyrazolo[1,5-a]pyrimidin-7-yl]-[2,2,2-trifluoro-1-(3-methyl-[1,2,4]oxadiazol-5-ylmethyl)-ethyl]-amine], the Ki is reported as < 100 nM.
For `COc1ccc(-c2c(C)nn3c(N[C@H](C)Cc4nc(C5CC5)no4)cc(C)nc23)c(C)c1` [Example 11-9, [2-(3-Cyclopropyl-[1,2,4]oxadiazol-5-yl)-(R)-1-methyl-ethyl]-[3-(4-methoxy-2-methyl-phenyl)-2,5-dimethyl-pyrazolo[1,5-a]pyrimidin-7-yl]-amine], the Ki was < 100 nM.
`COc1ccc(-c2c(C)nn3c(NC(C)Cc4nc(C(C)C)no4)cc(C)nc23)c(C)c1` (stereo not shown) [Example 12-5, [2-(3-Isopropyl-[1,2,4]oxadiazol-5-yl)-1-methyl-ethyl]-[3-(4-methoxy-2-methyl-phenyl)-2,5-dimethyl-pyrazolo[1,5-a]pyrimidin-7-yl]-amine] was tested, and the Ki was < 100 nM.
In the case of `COc1ccc(-c2c(C)nn3c(N[C@@H](Cc4nc(C)no4)C(F)(F)F)cc(C)nc23)c(OC)c1` [Example 13-8, [3-(2,4-Dimethoxy-phenyl)-2,5-dimethyl-pyrazolo[1,5-a]pyrimidin-7-yl]-[2,2,2-trifluoro-(S)-1-(3-methyl-[1,2,4]oxadiazol-5-ylmethyl)-ethyl]-amine], the Ki is reported as < 100 nM.
With `CCC(Nc1cc(C)nc2c(-c3ccc(OC)cc3C)c(C)nn12)c1nc(C(C)C)no1` (stereo not shown) [Example 11-4, [1-(3-Isopropyl-[1,2,4]oxadiazol-5-yl)-propyl]-[3-(4-methoxy-2-methyl-phenyl)-2,5-dimethyl-pyrazolo[1,5-a]pyrimidin-7-yl]-amine] the Ki was < 100 nM.
`COc1ccc(-c2c(C)nn3c(NC(Cc4ccccc4)c4nc(C)no4)cc(C)nc23)c(C)c1` (stereo not shown) [Example 11-3, [3-(4-Methoxy-2-methyl-phenyl)-2,5-dimethyl-pyrazolo[1,5-a]pyrimidin-7-yl]-[1-(3-methyl-[1,2,4]oxadiazol-5-yl)-2-phenyl-ethyl]-amine] was tested, and the Ki was < 100 nM.
In the case of `COc1ccc(-c2c(C)nn3c(NC(CC(C)C)c4nc(C)no4)cc(C)nc23)c(OC)c1` (stereo not shown) [Example 11-23, [3-(2,4-Dimethoxy-phenyl)-2,5-dimethyl-pyrazolo[1,5-a]pyrimidin-7-yl]-[3-methyl-1-(3-methyl-[1,2,4]oxadiazol-5-yl)-butyl]-amine], the Ki is reported as < 100 nM.
In the case of `COc1ccc(-c2c(C)nn3c(N(Cc4ccccc4)Cc4nc(C)no4)cc(C)nc23)c(C)c1` [Example 12-2, Benzyl-[3-(4-methoxy-2-methyl-phenyl)-2,5-dimethyl-pyrazolo[1,5-a]pyrimidin-7-yl]-(3-methyl-[1,2,4]oxadiazol-5-ylmethyl)-amine], the Ki is reported as < 100 nM.
With `CCC(Cc1nc(C)no1)Nc1cc(C)nc2c(-c3ccc(OC)cc3OC)c(C)nn12` (stereo not shown) [Example 12-11, [3-(2,4-Dimethoxy-phenyl)-2,5-dimethyl-pyrazolo[1,5-a]pyrimidin-7-yl]-[1-(3-methyl-[1,2,4]oxadiazol-5-ylmethyl)-propyl]-amine] the Ki was < 100 nM.
For `CCC(Cc1nc(C2CC2)no1)Nc1cc(C)nc2c(-c3ccc(OC)cc3OC)c(C)nn12` (stereo not shown) [Example 12-10, [1-(3-Cyclopropyl-[1,2,4]oxadiazol-5-ylmethyl)-propyl]-[3-(2,4-dimethoxy-phenyl)-2,5-dimethyl-pyrazolo[1,5-a]pyrimidin-7-yl]-amine], the Ki was < 100 nM.
`CCC(Nc1cc(C)nc2c(-c3ccc(OC)cc3C)c(C)nn12)c1nnco1` (stereo not shown) [Example 21-1, [3-(4-Methoxy-2-methyl-phenyl)-2,5-dimethyl-pyrazolo[1,5-a]pyrimidin-7-yl]-(1-[1,3,4]oxadiazol-2-yl-propyl)-amine] was tested, and the Ki was < 100 nM.
With `COc1ccc(-c2c(C)nn3c(N[C@@H](Cc4noc(C)n4)C(F)(F)F)cc(C)nc23)c(C)c1` [Example 19-1, [3-(4-Methoxy-2-methyl-phenyl)-2,5-dimethyl-pyrazolo[1,5-a]pyrimidin-7-yl]-[(S)-2,2,2-trifluoro-1-(5-methyl-[1,2,4]oxadiazol-3-ylmethyl)-ethyl]-amine] the Ki was < 100 nM.
In the case of `COc1ccc(-c2c(C)nn3c(NC(C)Cc4nnc(C(F)(F)F)o4)cc(C)nc23)c(C)c1` (stereo not shown) [Example 23-2, [3-(4-Methoxy-2-methyl-phenyl)-2,5-dimethyl-pyrazolo[1,5-a]pyrimidin-7-yl]-[1-methyl-2-(5-trifluoromethyl-[1,3,4]oxadiazol-2-yl)-ethyl]-amine], the Ki is reported as < 100 nM.
With `COc1ccc(-c2c(C)nn3c(NC(C)Cc4nc(C(F)(F)F)no4)cc(C)nc23)c(C)c1` (stereo not shown) [Example 13-3, [3-(4-Methoxy-2-methyl-phenyl)-2,5-dimethyl-pyrazolo[1,5-a]pyrimidin-7-yl]-[1-methyl-2-(3-trifluoromethyl-[1,2,4]oxadiazol-5-yl)-ethyl]-amine] the Ki was < 100 nM.
With `COc1ccc(-c2c(C)nn3c(N[C@@H](Cc4nc(C(F)(F)F)no4)C(F)(F)F)cc(C)nc23)c(OC)c1` [Example 13-9, [3-(2,4-Dimethoxy-phenyl)-2,5-dimethyl-pyrazolo[1,5-a]pyrimidin-7-yl]-[2,2,2-trifluoro-(S)-1-(3-trifluoromethyl-[1,2,4]oxadiazol-5-ylmethyl)-ethyl]-amine] the Ki was < 100 nM.
For `COCCN(Cc1nc(C)no1)c1cc(C)nc2c(-c3ccc(OC)cc3OC)c(C)nn12` [Example 15-1, [3-(2,4-Dimethoxy-phenyl)-2,5-dimethyl-pyrazolo[1,5-a]pyrimidin-7-yl]-(2-methoxy-ethyl)-(3-methyl-[1,2,4]oxadiazol-5-ylmethyl)-amine], the Ki was < 100 nM.
For `CCC(Nc1cc(C)nc2c(-c3ccc(OC)cc3C)c(C)nn12)c1nc(C2CC2)no1` (stereo not shown) [Example 11-1, [1-(3-Cyclopropyl-[1,2,4]oxadiazol-5-yl)-propyl]-[3-(4-methoxy-2-methyl-phenyl)-2,5-dimethyl-pyrazolo[1,5-a]pyrimidin-7-yl]-amine], the Ki was < 100 nM.
